# According to patent US6492329B1, “Cytokine and hemopoietic factor endogenous production enhancer and methods of use thereof” (Novelos Therapeutics, Inc., priority 1995, dated 2002):
# Assays:
# leukemia L1210 cells [1] = assay: Leukemia L1210 in mice: ascitic fluid and survival (Example 14); details: for Accumulation of ascitic (weight gain, %): leukemia L1210
# Protocol: (§6) An influence of 7 day course of test article daily administration was studied in respect of tumor progression, which was estimated using the two integral indices: pace of mouse weight gain due to accumulation of ascitic fluid, and by animal mean survival time after inoculation.
# (§7) The study was carried out on DBA/2 mice weighing 18-21 g. First, tumor cell passage was performed using 6 animals for each cell line. For this, cells kept at the temperature of the liquid nitrogen were de-frozen and adjusted to the concentration of 5×10^6 cells/mL by sterile Hanks' solution. Then, 6 mice were intra peritoneally inoculated with 0.2 mL of each line cellular suspension.
# (§8) Ascitic fluid was collected 6 days after the inoculation with L1210 cells, 8 days after the inoculation with P388 ones and 18 days after inoculation with Erlich adenocarcinoma cells. Thus obtained, the samples of passaged tumor cells were used for the main experiments. The fluid liquid was dissolved by sterile Hanks' solution so that cell concentration be 5×10^6 cells/mL for P388 cells and Erlich adenocarcinoma cells, 5×10^5 cells/mL for L1210 cells.
# (§9) Eleven groups of animals with no less than 15 mice each were formed for experiments with either tumor cell line. Mice were inoculated with 0.2 mL of resultant cell suspensions per mouse (10^6 P388 and Erlich adenocarcinoma cells/mouse, and 10^5 L1210 cells/mouse). 24 hours after the tumor cells inoculation, animals were given the first injections of the test articles or vehicles. The test article injections were made daily till the 14th day of the experiment or till the animal death. The volume of solutions injected comprised 0.01 mL/g body weight.
# (§10) #1—intact animals receiving imitation of tumor cell inoculation (injection of normal saline) which further were treated with normal saline throughout the entire experiment;
# (§11) #2—control animals, inoculated with tumor cells, which further were treated with test article vehicle (normal saline);
# normal human lymphocytes = assay: Proliferation/apoptosis of normal human lymphocytes (cell number per well, flow cytofluorometry); assay type: cell-based
# [2] = tested on: Erlich adenocarcinoma cells; assay: Erlich adenocarcinoma in mice: ascitic fluid and survival (Example 14); details: for Accumulation of ascitic (weight gain, %): Erlich adenocarcinoma
# Protocol: as §6, §7, §8, §9, §10, §11
# [3] = tested on: e-ras cell line (REF transformed with E1A and ras-oncogene); assay: Number of clones of e-ras cells throughout 72-hr incubation; assay type: cell-based, rat
# Protocol: (§1) To this end, these substances had been incubated for 72 hours with cells of rat embrional fibroblasts (REF) and the same cells, transformed with adenoviral E1A gene in complementation with ras-oncogene (e-ras cell line). Subsequent evaluation of the cellularity of experimental samples was carried out by counting the quantity of cell per milliliter (for REF cell line) or clones in dish (for e-ras cell line).
# (§2) Cells were cultivated on DMEM medium supplemented with 10% fetal calf serum and […] gentamicin. Cultivation was carried out in Petri dishes.
# (§3) E-ras cells were seeded at a cell density of 300 cells per 5 cm dish. 7 days after growth of e-ras cells had been started the quantity of clones was evaluated and the test articles were added into the dishes.
# (§4) For the test-system for estimation of apoptosis regulation UV-induced cell death was triggered in a dose of 4 Dj. Test articles were added immediately after irradiation. Then, the quantity of cell per milliliter (for REF cell line) or clones in dish (for e-ras cell line) were monitored every 24 hours. For determination of DNA-fragmentation the electrophoresis in agarose gel was used at standard settings.
# leukemia L1210 cells [4] = assay: Leukemia L1210 in mice: serum cytokines, ascitic fluid, survival (Example 5); details: for Accumulation of ascitic fluid (weight gain) / Concentration in serum: IFNα / Concentration in serum: IL-1 / Concentration in serum: IL-2 / Concentration in serum: IL-6 / Concentration in serum: TNFα: L1210 mice
# Protocol: (§12) An influence of 7 day course of test article daily administration was studied in respect of variations of serum cytokine levels (IL-1, IL-2, IL-6, IFNα, TNF). In parallel, the tumor progression was estimated using the two integral indices: pace of mouse weight gain due to accumulation of ascitic fluid, and by animal mean survival time after inoculation.
# (§13) The study was carried out on DBA/2 mice weighing 18-21 g. First, tumor cell passage was performed using 6 animals for each cell line. For this, cells kept at the temperature of the liquid nitrogen were de-frozen and adjusted to the concentration of 5×10^6 cells/mL by sterile Hanks' solution. Then, 6 mice were intraperitoneally inoculated with 0.2 mL of each line cellular suspension.
# (§14) Ascitic fluid was collected 6 days after the inoculation with L1210 cells and 8 days after the inoculation with P388 ones. Thus obtained, the samples of passaged tumor cells were used for the main experiments. The fluid liquid was dissolved by sterile Hanks' solution so that cell concentration be 5×10^6 cells/mL for P388 cells and 5×10^5 cells/mL for L1210 cells.
# (§15) Nine groups of animals with no less than 15 mice each were formed for experiments with either tumor cell line. Mice were inoculated with 0.2 mL of resultant cell suspensions per mouse (10^6 P388 cells/mouse, and 10^5 L1210 cells/mouse). 24 hours after the tumor cells inoculation. animals were given the first injections of the test articles or vehicles. The test article injections were made daily till the 14th day of the experiment or until the animal's death. The volume of solutions injected comprised 0.01 mL/g body weight.
# as §10, §11
# [5] = tested on: rat embrional fibroblasts (REF) after UV-irradiation; assay: Number of REF cells after UV-irradiation; assay type: cell-based
# Protocol: as §1, §2
# (§5) REF cells was cultivated with initial density of 800 000 cell per mL, evaluation of the cellularity was performed at 0, 24, 48 and 72 hours of incubation with the test articles.
# as §4
# [6] = tested on: e-ras cells after UV-irradiation; assay: Number of clones of e-ras cells after UV-irradiation; assay type: cell-based, rat
# Protocol: as §1, §2, §3, §4
# leukemia P388 cells [7] = assay: Leukemia P388 in mice: serum cytokines, ascitic fluid, survival (Example 5); details: for Accumulation of ascitic fluid (weight gain) / Concentration in serum: IFNα / Concentration in serum: IL-1 / Concentration in serum: IL-2 / Concentration in serum: IL-6 / Concentration in serum: TNFα: P388 mice
# Protocol: as §12, §13, §14, §15, §10, §11
# leukemia P388 cells [8] = assay: Leukemia P388 in mice: ascitic fluid and survival (Example 14); details: for Accumulation of ascitic (weight gain, %): leukemia P388
# Protocol: as §6, §7, §8, §9, §10, §11
# [9] = tested on: rat embrional fibroblasts (REF); assay: Number of REF cells throughout 72-hr incubation; assay type: cell-based
# Protocol: as §1, §2, §5, §4
# HL-60 cells = assay: Proliferation/apoptosis of HL-60 tumor cells (cell number per well, flow cytofluorometry)
# Protocol: Subsequent evaluation of the cell cycle parameters was carried out by the flow cytofluorometry technique.
# A mononuclear fraction of blood leukocytes were obtained by centrifugation in gradient of fikoll-metrizoat (Histopaque, Sigma). […] Cell viability was estimated by the Trypan blue exclusion method, then the cell suspension was placed into wells of 96-well microtiter plates—200,000 cells per well. […] Cultivation was carried out in closed flasks, the medium volume was 12 mL, it was changed every four days by centrifugation. The nature of the cells growth was suspensive. […] 50 μL of each test solution were added to one or the other cell culture and thereafter cells were cultivated for 24-96 hours. Then, they were tested by the flow cytofluorometry to estimate DNA content in the cell nuclei. In case of apoptosis-like cellular death, the portion of cell nuclei with normal content of DNA became reduced, while the portion of cell nuclei containing abnormally small DNA quantity became larger.
# The analysis procedure was the following: after incubation completion, cells were centrifuged and transferred to a standard phosphate isotonic buffer pH 7.4, containing RNA-ase A (20 μg/mL), ethidium bromide (fluorometric indicator for double stranded nucleic acid. 10 μg/mL) and MgCl2 (5 mM). After the cells were disintegrated by nonionic detergent Triton X-100 (final concentration 0.1%). The suspension of cell nuclei thus obtained was analyzed by flow cytofluorometry with an argon laser as a source of light (wave length 488 nm). The red fluorescence due to DNA bound ethidium bromide was taken to be the measure of DNA content in the cell nuclei.
structure (smiles),measurement,setting,value
"OO [0.003% H2O2, hydrogen peroxide]","Accumulation of ascitic (weight gain, %)",leukemia L1210 cells [1]; number of injection 0,0.77 ± 0.2%
same,"Accumulation of ascitic (weight gain, %)",leukemia L1210 cells [1]; number of injection 3,6.1 ± 0.4%
same,"Accumulation of ascitic (weight gain, %)",leukemia L1210 cells [1]; number of injection 7,19.2 ± 2.2%
same,Mean survival time,leukemia L1210 cells [1]; mice inoculated with leukemia L1210 cells,9.2 ± 0.8
same,number of normal lymphocytes per well,normal human lymphocytes; 24 hours incubation,28 ± 2 × 10^4 cells
same,number of normal lymphocytes per well,normal human lymphocytes; 48 hours incubation,73 ± 5 × 10^4 cells
same,number of normal lymphocytes per well,normal human lymphocytes; 72 hours incubation,123 ± 8 × 10^4 cells
same,number of normal lymphocytes per well,normal human lymphocytes; 96 hours incubation,206 ± 8 × 10^4 cells
same,"Accumulation of ascitic (weight gain, %)",[2]; number of injection 0,0.9 ± 0.2%
same,"Accumulation of ascitic (weight gain, %)",[2]; number of injection 3,14.1 ± 0.6%
same,"Accumulation of ascitic (weight gain, %)",[2]; number of injection 7,27.2 ± 1.2%
same,Mean survival time,[2]; mice inoculated with Erlich adenocarcinoma cells,9.8 ± 0.8
same,number of clones of e-ras cells (M ± m),[3]; 0 hours of incubation,288 ± 4
same,number of clones of e-ras cells (M ± m),[3]; 24 hours of incubation,286 ± 4
same,number of clones of e-ras cells (M ± m),[3]; 48 hours of incubation,264 ± 3
same,number of clones of e-ras cells (M ± m),[3]; 72 hours of incubation,234 ± 6
same,Accumulation of ascitic fluid (weight gain),leukemia L1210 cells [4]; 0 injections,0.79%
same,Concentration in serum: IFNα,leukemia L1210 cells [4]; 0 injections,133.7 pg/mL
same,Concentration in serum: IL-1,leukemia L1210 cells [4]; 0 injections,17.07 pg/mL
same,Concentration in serum: IL-2,leukemia L1210 cells [4]; 0 injections,16.18 pg/mL
same,Concentration in serum: IL-6,leukemia L1210 cells [4]; 0 injections,120.9 pg/mL
same,Concentration in serum: TNFα,leukemia L1210 cells [4]; 0 injections,110. pg/mL
same,Accumulation of ascitic fluid (weight gain),leukemia L1210 cells [4]; 3 daily injections,6.12%
same,Concentration in serum: IFNα,leukemia L1210 cells [4]; 3 daily injections,189. pg/mL
same,Concentration in serum: IL-1,leukemia L1210 cells [4]; 3 daily injections,38.15 pg/mL
same,Concentration in serum: IL-2,leukemia L1210 cells [4]; 3 daily injections,23.5 pg/mL
same,Concentration in serum: IL-6,leukemia L1210 cells [4]; 3 daily injections,140. pg/mL
same,Concentration in serum: TNFα,leukemia L1210 cells [4]; 3 daily injections,158.0 pg/mL
same,Accumulation of ascitic fluid (weight gain),leukemia L1210 cells [4]; 7 daily injections,21.61%
same,Concentration in serum: IFNα,leukemia L1210 cells [4]; 7 daily injections,209. pg/mL
same,Concentration in serum: IL-1,leukemia L1210 cells [4]; 7 daily injections,23.6 pg/mL
same,Concentration in serum: IL-2,leukemia L1210 cells [4]; 7 daily injections,45.5 pg/mL
same,Concentration in serum: IL-6,leukemia L1210 cells [4]; 7 daily injections,103. pg/mL
same,Concentration in serum: TNFα,leukemia L1210 cells [4]; 7 daily injections,220.0 ± pg/mL
same,Mean survival time,"leukemia L1210 cells [4]; mice inoculated with leukemia L1210 cells, daily injections till day 14 or death",9.7 ± 0.21
same,number of REF cells after UV-irradiation (M ± m),[5]; 0 hours,822 ± 11 × 10^3 cells
same,number of REF cells after UV-irradiation (M ± m),[5]; 24 hours,365 ± 14 × 10^3 cells
same,number of REF cells after UV-irradiation (M ± m),[5]; 48 hours,258 ± 33 × 10^3 cells
same,number of REF cells after UV-irradiation (M ± m),[5]; 72 hours,159 ± 24 × 10^3 cells
same,number of clones of e-ras cells after UV-irradiation (M ± m),[6]; 0 hours,288 ± 4
same,number of clones of e-ras cells after UV-irradiation (M ± m),[6]; 24 hours,186 ± 4
same,number of clones of e-ras cells after UV-irradiation (M ± m),[6]; 48 hours,124 ± 3
same,number of clones of e-ras cells after UV-irradiation (M ± m),[6]; 72 hours,84 ± 6
same,Accumulation of ascitic fluid (weight gain),leukemia P388 cells [7]; 0 injections,0.63 ± 0.15%
same,Concentration in serum: IFNα,leukemia P388 cells [7]; 0 injections,129. ± 10.0 pg/mL
same,Concentration in serum: IL-1,leukemia P388 cells [7]; 0 injections,15.5 ± 2.04 pg/mL
same,Concentration in serum: IL-2,leukemia P388 cells [7]; 0 injections,14.95 ± 2.16 pg/mL
same,Concentration in serum: IL-6,leukemia P388 cells [7]; 0 injections,134.0 ± 15.6 pg/mL
same,Concentration in serum: TNFα,leukemia P388 cells [7]; 0 injections,119. ± 9.13 pg/mL
same,Accumulation of ascitic fluid (weight gain),leukemia P388 cells [7]; 3 daily injections,5.4 ± 0.62%
same,Concentration in serum: IFNα,leukemia P388 cells [7]; 3 daily injections,205.8 ± 18.3 pg/mL
same,Concentration in serum: IL-1,leukemia P388 cells [7]; 3 daily injections,44.7 ± 6.14 pg/mL
same,Concentration in serum: IL-2,leukemia P388 cells [7]; 3 daily injections,22.0 ± 2.81 pg/mL
same,Concentration in serum: IL-6,leukemia P388 cells [7]; 3 daily injections,156.0 ± 16.3 pg/mL
same,Concentration in serum: TNFα,leukemia P388 cells [7]; 3 daily injections,144.5 ± 12.8 pg/mL
same,Accumulation of ascitic fluid (weight gain),leukemia P388 cells [7]; 7 daily injections,20.3 ± 2.28%
same,Concentration in serum: IFNα,leukemia P388 cells [7]; 7 daily injections,190. ± 16.7 pg/mL
same,Concentration in serum: IL-1,leukemia P388 cells [7]; 7 daily injections,28.6 ± 4.11 pg/mL
same,Concentration in serum: IL-2,leukemia P388 cells [7]; 7 daily injections,40.8 ± 5.12 pg/mL
same,Concentration in serum: IL-6,leukemia P388 cells [7]; 7 daily injections,110.9 ± 12.5 pg/mL
same,Concentration in serum: TNFα,leukemia P388 cells [7]; 7 daily injections,248. ± 20.7 pg/mL
same,Mean survival time,"leukemia P388 cells [7]; mice inoculated with leukemia P388 cells, daily injections till day 14 or death",9.9 ± 0.24
same,"Accumulation of ascitic (weight gain, %)",leukemia P388 cells [8]; number of injection 0,0.7 ± 0.2%
same,"Accumulation of ascitic (weight gain, %)",leukemia P388 cells [8]; number of injection 3,4.1 ± 0.4%
same,"Accumulation of ascitic (weight gain, %)",leukemia P388 cells [8]; number of injection 7,19.0 ± 2.1%
same,Mean survival time,leukemia P388 cells [8]; mice inoculated with leukemia P388 cells,21.2 ± 0.8
same,number of REF cells (M ± m),[9]; 0 hours of incubation,822 ± 11 × 10^3 cells
same,number of REF cells (M ± m),[9]; 24 hours of incubation,1365 ± 14 × 10^3 cells
same,number of REF cells (M ± m),[9]; 48 hours of incubation,2598 ± 63 × 10^3 cells
same,number of REF cells (M ± m),[9]; 72 hours of incubation,5059 ± 34 × 10^3 cells
same,number of HL-60 cells per well,HL-60 cells; 24 hours incubation,122 ± 6 × 10^4 cells
same,number of HL-60 cells per well,HL-60 cells; 48 hours incubation,186 ± 12 × 10^4 cells
same,number of HL-60 cells per well,HL-60 cells; 72 hours incubation,488 ± 24 × 10^4 cells
same,number of HL-60 cells per well,HL-60 cells; 96 hours incubation,712 ± 22 × 10^4 cells
